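How tested: cells in 96-well plates exposed to compound for 48 hours at five concentrations. At the GI50, growth is halved. TGI is the concentration that stops growth completely.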
What was measured:
Test in all cases: NCI tumour cell line growth inhibition, 48 h
ACHN renal = system: ACHN renal
EKVX NSCLC = system: EKVX NSCLC
HOP-92 NSCLC = system: HOP-92 NSCLC
MCF7 breast = system: MCF7 breast
NCI/ADR-RES ovarian = system: NCI/ADR-RES ovarian
OVCAR-4 ovarian = system: OVCAR-4 ovarian
SF-295 CNS = system: SF-295 CNS
SN12C renal = system: SN12C renal
SW-620 colon = system: SW-620 colon
UO-31 renal = system: UO-31 renal

Compound | GI50 (ACHN renal) | TGI (ACHN renal) | GI50 (EKVX NSCLC) | TGI (EKVX NSCLC) | GI50 (HOP-92 NSCLC) | TGI (HOP-92 NSCLC) | GI50 (MCF7 breast) | TGI (MCF7 breast) | GI50 (NCI/ADR-RES ovarian) | GI50 (OVCAR-4 ovarian) | TGI (OVCAR-4 ovarian) | GI50 (SF-295 CNS) | TGI (SF-295 CNS) | GI50 (SN12C renal) | TGI (SN12C renal) | GI50 (SW-620 colon) | TGI (SW-620 colon) | GI50 (UO-31 renal) | TGI (UO-31 renal) | TGI (NCI/ADR-RES ovarian)
COc1ccc(C(=O)c2cc(C)c(OC)c(C)c2)c(OC)c1N(C(=O)C(Cl)Cl)C(=O)C(Cl)Cl | 0.0699 µM | > 100 µM | 0.0735 µM | > 100 µM | 0.407 µM | > 94 µM | 0.0811 µM | > 100 µM | 0.032 µM | 1.59 µM | > 100 µM | 0.0323 µM | > 100 µM | 0.0727 µM | > 100 µM | 0.0426 µM | > 100 µM | 0.0736 µM | > 47.5 µM | –
Fc1cc(F)c(COc2cc(Cn3cnc4c(Cl)nc(Cl)nc43)ccc2C23CC4CC(CC(C4)C2)C3)cc1F | 17.1 µM | 30.8 µM | 23.3 µM | 50.8 µM | 17.6 µM | 32.1 µM | 11 µM | 27.5 µM | 18.3 µM | 19.5 µM | 44 µM | 18 µM | 34 µM | 11 µM | 24.9 µM | 12.3 µM | 29.3 µM | 17.8 µM | 31.6 µM | 37.1 µM
CCN(CC)c1ccc(C(=N)c2ccc(N(CC)CC)cc2)cc1 | 0.784 µM | 6.43 µM | 0.868 µM | 11.8 µM | 0.607 µM | 2.72 µM | 0.349 µM | 1.78 µM | 0.412 µM | 1.55 µM | 15.9 µM | 0.438 µM | 2.02 µM | 1.34 µM | 5.82 µM | 0.346 µM | 1.5 µM | 0.557 µM | 2.64 µM | 1.83 µM
O=C(CCl)Nc1ccc(Cl)cc1 | 3.13 µM | 10.6 µM | 6.93 µM | 26.3 µM | 6.67 µM | 20.7 µM | 1.78 µM | 4.54 µM | 2.8 µM | 5.68 µM | 25.3 µM | 3.45 µM | 13.3 µM | 3.4 µM | 22.9 µM | 3.45 µM | 11.2 µM | 8.07 µM | 24.1 µM | 8.96 µM
COc1cc(OC)c(/C=C/C(=O)c2c(OC)cccc2OC)c(OC)c1 | 0.703 µM | > 100 µM | 4.03 µM | > 100 µM | 0.222 µM | – | 0.392 µM | > 100 µM | 0.387 µM | 19.7 µM | > 100 µM | 0.395 µM | – | 1.1 µM | > 100 µM | 0.375 µM | > 32.6 µM | 0.899 µM | > 100 µM | > 25.8 µM
COC(=O)Nc1nc2ccc(Oc3ccc(NC(=O)Nc4ccccc4)cc3)cc2[nH]1 | 0.466 µM | > 25 µM | 2.44 µM | > 25 µM | 0.555 µM | 11.1 µM | 0.0932 µM | – | 0.391 µM | 0.207 µM | 5.68 µM | 0.121 µM | 2.23 µM | 0.452 µM | > 10.9 µM | 0.101 µM | > 10.2 µM | 1.65 µM | > 25 µM | > 25 µM
CC/C=C\C[C@@H]1C/C=C2/C(=O)C=C[C@H]2C/C=C\CCCC(=O)O1 | 0.183 µM | 0.372 µM | 1.1 µM | 2.44 µM | 2.25 µM | 4.97 µM | 0.356 µM | 2.12 µM | 0.349 µM | 1.04 µM | 2.38 µM | 1.18 µM | 2.73 µM | 0.545 µM | 4.01 µM | 0.483 µM | 2.02 µM | 0.929 µM | 2.23 µM | 18.7 µM
CCCCN=C(N)c1ccc(OCCSCCOc2ccc(C(N)=NCCCC)cc2)cc1 | > 100 µM | > 100 µM | 0.96 µM | > 100 µM | 1.44 µM | 14.6 µM | 3.34 µM | > 100 µM | > 100 µM | 3.94 µM | > 100 µM | 2.73 µM | 53.8 µM | 1.76 µM | > 100 µM | 10.2 µM | > 100 µM | > 100 µM | > 100 µM | > 100 µM
Clc1nc(Cl)c2ncn(Cc3cccc(COc4cccc(OCc5cccc(Cn6cnc7c(Cl)nc(Cl)nc76)c5)c4)c3)c2n1 | 54.5 µM | > 100 µM | > 100 µM | > 100 µM | 15.6 µM | 69.2 µM | 31.1 µM | > 100 µM | 53.1 µM | 32 µM | > 100 µM | > 100 µM | > 100 µM | > 100 µM | > 100 µM | > 100 µM | > 100 µM | 66.4 µM | > 100 µM | > 100 µM
CCN(CC)CCCC(C)Nc1c(C)cnc2cc(Cl)c(C)cc12 (stereo not drawn) | 5.49 µM | 31.5 µM | 15 µM | 38.7 µM | 0.288 µM | 3.87 µM | 16.2 µM | 35.3 µM | 3.43 µM | 10.2 µM | 35.7 µM | 11.3 µM | 28.1 µM | 11.2 µM | 43.9 µM | 10.6 µM | 25.7 µM | 17.5 µM | > 78.5 µM | 10.7 µM
c1ccc(C2=NNC3c4ccccc4-c4ccccc4N3C2)cc1 (stereo not drawn) | – | > 100 µM | – | > 100 µM | – | > 100 µM | – | > 100 µM | – | – | > 100 µM | – | > 100 µM | – | > 100 µM | – | > 100 µM | – | > 100 µM | > 100 µM
Cc1ccc(C(=NN=C(N)N)c2ccc(C)cc2)cc1 | 1.1 µM | 7.4 µM | 0.7 µM | 16.6 µM | 0.99 µM | 5.96 µM | 0.396 µM | 8.53 µM | 1.85 µM | 1.7 µM | 13.8 µM | 0.284 µM | 0.945 µM | 1.07 µM | 11.6 µM | 0.379 µM | 1.66 µM | 1.73 µM | 9.76 µM | 5.59 µM
COc1ccc(C(=O)COc2cccc(/C=C3\COc4ccc5ccccc5c4C3=O)c2)cc1 | 80.7 µM | > 100 µM | 4.26 µM | > 100 µM | 0.786 µM | 8.14 µM | 2.48 µM | > 100 µM | 6.14 µM | 6.53 µM | > 100 µM | 2.87 µM | 63.6 µM | 4.46 µM | > 100 µM | 3.33 µM | 13.7 µM | 20.4 µM | > 100 µM | > 100 µM
CC(=O)OC1CC(O)C23COC(O)C1(C)C2CC(O)C1(C)C3C(=O)C(O)C2(C)C(c3ccoc3)CC3OC321 (stereo not drawn) | 0.685 µM | > 100 µM | 1.94 µM | > 100 µM | 0.911 µM | > 100 µM | > 100 µM | > 100 µM | 71.9 µM | – | > 100 µM | 0.0522 µM | – | > 100 µM | > 100 µM | 0.0323 µM | > 100 µM | 3.08 µM | > 41.4 µM | > 100 µM
CC(=O)OC1Oc2ccccc2-c2oc(=O)c(-c3cc4ccc(N(C)C)cc4oc3=O)cc21 (stereo not drawn) | 10.4 µM | 23.2 µM | 1.78 µM | 22.2 µM | 4.8 µM | 23.3 µM | 10.2 µM | 29.8 µM | 6.11 µM | 1.29 µM | 24 µM | 4.57 µM | 21 µM | 19.9 µM | 69.6 µM | 20.6 µM | > 100 µM | 16.9 µM | 48.8 µM | 34.7 µM
CC1CN1CC(O)C(O)CN1CC1C (stereo not drawn) | 0.395 µM | – | 13.8 µM | > 80.6 µM | 6.12 µM | > 28.6 µM | 0.427 µM | 36.6 µM | 1.24 µM | 6.18 µM | > 100 µM | 0.494 µM | > 33.4 µM | 0.692 µM | > 67.8 µM | 2.47 µM | > 62 µM | 0.932 µM | 10.9 µM | > 87.1 µM
CN(C)c1ccc(N)cc1 | 4.38 µM | 18 µM | 3.32 µM | 26.4 µM | 2.3 µM | 7.91 µM | 2.83 µM | 9.12 µM | 12.6 µM | 1.74 µM | 3.45 µM | 2.37 µM | 6.48 µM | 4.35 µM | 33.9 µM | 4.15 µM | 17.2 µM | 3.97 µM | 16.3 µM | 48 µM
CC(C)c1ccc(C(=O)Nc2sc3c(c2C(N)=O)CCC(=O)C3)cc1 | 0.343 µM | 1.11 µM | 1.78 µM | 5.34 µM | 1.29 µM | 3.67 µM | 0.466 µM | 5.16 µM | 0.975 µM | 0.329 µM | 1.2 µM | 1.42 µM | 3.61 µM | 0.515 µM | 2.35 µM | 0.256 µM | 1.6 µM | 0.267 µM | 1.1 µM | 5.57 µM
CCc1[nH]c(=O)nc(N)c1-c1ccc(N2CCCCC2)c([N+](=O)[O-])c1 | – | > 100 µM | – | > 100 µM | – | > 100 µM | – | > 100 µM | – | – | > 100 µM | – | > 100 µM | – | > 100 µM | – | > 100 µM | – | > 100 µM | > 100 µM
